Laboratory results as given in DBAASP.
≈ marks a conversion by molar mass, not a printed value.

Key:
Assay in all cases: ≥ marks a high value that may be exact or a test limit, other limits are often not marked, values filed in µg/mL are converted to µM
Candida albicans = test system: Candida albicans
Escherichia coli = test system: Escherichia coli
Staphylococcus aureus = test system: Staphylococcus aureus
Bacillus cereus = test system: Bacillus cereus

Row | MIC (Candida albicans) [µM] | MIC (Escherichia coli) [µM] | MIC (Staphylococcus aureus) [µM] | MIC (Bacillus cereus) [µM] | SMILES
1 | 30.8 (≈ 35.2 µg/mL) | – | – | – | NCCCC[C@H](NC(=O)[C@H](CCC(=O)O)NC(=O)[C@@H](N)CC(=O)O)C(=O)NCC(=O)N1CCC[C@H]1C(=O)N[C@@H](CCCCN)C(=O)N[C@@H](Cc1c[nH]c2ccccc12)C(=O)N[C@@H](CCCCN)C(=O)N[C@@H](CCCN=C(N)N)C(=O)O [DEKGPKWKR]
2 | 150 (≈ 244 µg/mL) | 38.4 (≈ 62.4 µg/mL) | 9.5 (≈ 15.4 µg/mL) | – | CC[C@H](C)[C@H](NC(=O)[C@H](CC(C)C)NC(=O)[C@H](CCCCN)NC(=O)CNC(=O)[C@@H](NC(=O)[C@@H](N)Cc1ccccc1)[C@@H](C)CC)C(=O)N[C@@H](CO)C(=O)N[C@@H](C)C(=O)N[C@@H](C)C(=O)N[C@@H](CO)C(=O)NCC(=O)N[C@@H](CC(C)C)C(=O)N[C@@H](CC(C)C)C(=O)N[C@@H](CO)C(=O)N[C@@H](Cc1cnc[nH]1)C(=O)N[C@@H](CC(C)C)C(N)=O [FIGKLISAASGLLSHL]
3 | – | 15.3 (≈ 32 µg/mL) | > 123 | ≥ 61.3 | CC(C)C[C@H](NC(=O)[C@@H](N)Cc1ccccc1)C(=O)NCC(=O)N[C@@H](CCCCN)C(=O)N[C@H](C(=O)N[C@@H](Cc1ccccc1)C(=O)N[C@@H](CCCCN)C(=O)NCC(=O)N[C@@H](C)C(=O)N[C@@H](CO)C(=O)N[C@@H](CCCCN)C(=O)N[C@H](C(=O)N[C@@H](Cc1ccccc1)C(=O)NCC(=O)N[C@@H](C)C(=O)N[C@H](C(=O)N[C@@H](Cc1ccccc1)C(=O)NCC(=O)N[C@@H](CCCCN)C(=O)N[C@H](C(=O)O)C(C)C)C(C)C)C(C)C)C(C)C [FLGKVFKGASKVFGAVFGKV]
4 | – | 7.47 (≈ 16 µg/mL) | 3.73 (≈ 8 µg/mL) | 3.73 (≈ 8 µg/mL) | CC(C)C[C@H](NC(=O)[C@H](CCCCN)NC(=O)[C@H](Cc1ccccc1)NC(=O)[C@@H](NC(=O)[C@H](CCCCN)NC(=O)CNC(=O)[C@H](CC(C)C)NC(=O)[C@@H](N)Cc1ccccc1)C(C)C)C(=O)N[C@@H](C)C(=O)N[C@@H](CO)C(=O)N[C@@H](CCCCN)C(=O)N[C@H](C(=O)N[C@@H](Cc1ccccc1)C(=O)NCC(=O)N[C@@H](C)C(=O)N[C@H](C(=O)N[C@@H](Cc1ccccc1)C(=O)NCC(=O)N[C@@H](CCCCN)C(=O)N[C@H](C(=O)O)C(C)C)C(C)C)C(C)C [FLGKVFKLASKVFGAVFGKV]
5 | – | > 122 | > 122 | ≥ 122 | CC(C)C[C@H](NC(=O)[C@@H](N)Cc1ccccc1)C(=O)NCC(=O)N[C@H](C(=O)N[C@H](C(=O)N[C@@H](Cc1ccccc1)C(=O)N[C@@H](CCCCN)C(=O)NCC(=O)N[C@@H](C)C(=O)N[C@@H](CO)C(=O)N[C@@H](CCCCN)C(=O)N[C@H](C(=O)N[C@@H](Cc1ccccc1)C(=O)N1CCC[C@H]1C(=O)N[C@@H](C)C(=O)N[C@H](C(=O)N[C@@H](Cc1ccccc1)C(=O)NCC(=O)N[C@@H](CCCCN)C(=O)N[C@H](C(=O)O)C(C)C)C(C)C)C(C)C)C(C)C)C(C)C [FLGVVFKGASKVFPAVFGKV]
6 | – | 58.6 (≈ 128 µg/mL) | 3.66 (≈ 8 µg/mL) | 3.66 (≈ 8 µg/mL) | CC(C)C[C@H](NC(=O)[C@H](CCCCN)NC(=O)[C@H](Cc1ccccc1)NC(=O)[C@@H](NC(=O)[C@@H](NC(=O)CNC(=O)[C@H](CC(C)C)NC(=O)[C@@H](N)Cc1ccccc1)C(C)C)C(C)C)C(=O)N[C@@H](C)C(=O)N[C@@H](CO)C(=O)N[C@@H](CCCCN)C(=O)N[C@H](C(=O)N[C@@H](Cc1ccccc1)C(=O)N[C@@H](CCCCN)C(=O)N[C@@H](C)C(=O)N[C@H](C(=O)N[C@@H](Cc1ccccc1)C(=O)NCC(=O)N[C@@H](CCCCN)C(=O)N[C@H](C(=O)O)C(C)C)C(C)C)C(C)C [FLGVVFKLASKVFKAVFGKV]
7 | – | > 123 | – | ≥ 123 | CC(C)[C@H](NC(=O)CNC(=O)CNC(=O)[C@@H](NC(=O)[C@@H](N)Cc1ccccc1)C(C)C)C(=O)N[C@@H](C)C(=O)N[C@@H](CO)C(=O)N[C@@H](CCCCN)C(=O)N[C@H](C(=O)N[C@H](C(=O)N1CCC[C@H]1C(=O)N[C@@H](CO)C(=O)N[C@H](C(=O)N[C@@H](Cc1ccc(O)cc1)C(=O)N[C@@H](CS)C(=O)N[C@@H](CCCCN)C(=O)N[C@H](C(=O)N[C@@H](CO)C(=O)N[C@@H](CCCCN)C(=O)N[C@@H](CCCCN)C(=O)O)C(C)C)C(C)C)C(C)C)C(C)C [FVGGVASKVVPSVYCKVSKK]
8 | – | 30.7 (≈ 64 µg/mL) | – | ≥ 123 | CC[C@H](C)[C@H](NC(=O)[C@@H](NC(=O)[C@H](CCCCN)NC(=O)[C@H](C)NC(=O)[C@H](CC(C)C)NC(=O)[C@H](CCCCN)NC(=O)[C@H](CCCCN)NC(=O)CN)[C@@H](C)O)C(=O)N[C@@H](C)C(=O)N[C@@H](CCCCN)C(=O)N[C@@H](CCC(=O)O)C(=O)N[C@H](C(=O)N[C@@H](C)C(=O)N[C@@H](CCCCN)C(=O)N[C@@H](CCC(N)=O)C(=O)NCC(=O)N[C@@H](C)C(=O)N[C@@H](CCCCN)C(=O)N[C@@H](Cc1ccccc1)C(=O)N[C@@H](C)C(=O)O)C(C)C [GKKLAKTIAKEVAKQGAKFA]
9 | 133 (≈ 255 µg/mL) | – | – | – | CC(C)C[C@H](NC(=O)CNC(=O)[C@H](C)NC(=O)[C@@H](N)CCCCN)C(=O)N[C@@H](C)C(=O)N[C@@H](Cc1ccccc1)C(=O)N1CCC[C@H]1C(=O)N[C@H](C(=O)NCC(=O)N[C@@H](CCCN=C(N)N)C(=O)N[C@H](C(=O)N[C@@H](Cc1cnc[nH]1)C(=O)N[C@@H](CCCN=C(N)N)C(=O)N[C@@H](CC(C)C)C(=O)N[C@@H](CC(C)C)C(=O)N[C@@H](CCCN=C(N)N)C(=O)N[C@@H](CCCCN)C(=O)O)C(C)C)C(C)C [KAGLAFPVGRVHRLLRK]
10 | 2.5 (≈ 4.41 µg/mL) | – | – | – | CC(=O)N[C@@H](CCCCN)C(=O)N[C@@H](Cc1ccc(O)cc1)C(=O)N[C@H](C(=O)NCC(=O)N[C@@H](CCCCN)C(=O)N[C@@H](CS)C(=O)N[C@@H](Cc1ccc(O)cc1)C(=O)N[C@@H](CCCCN)C(=O)N[C@@H](CCCCN)C(=O)N[C@@H](CCCCN)C(=O)N[C@@H](CC(N)=O)C(=O)N[C@@H](CCC(=O)O)C(=O)N[C@@H](CS)C(=O)N[C@@H](CCCCN)C(N)=O)[C@@H](C)O [KYTGKCYKKKNECK]
11 | – | > 131 | – | ≥ 131 | CC[C@H](C)[C@H](NC(=O)[C@@H](NC(=O)[C@H](C)NC(=O)[C@@H]1CCCN1C(=O)[C@@H](NC(=O)[C@@H](NC(=O)[C@H](CCCCN)NC(=O)[C@H](CO)NC(=O)[C@H](C)NC(=O)[C@H](CC(C)C)NC(=O)[C@H](CO)NC(=O)CNC(=O)[C@@H](NC(=O)[C@@H](NC(=O)CNC(=O)[C@@H](N)CC(C)C)C(C)C)C(C)C)C(C)C)C(C)C)C(C)C)C(=O)N[C@@H](CO)C(=O)N[C@@H](CCCCN)C(=O)N[C@H](C(=O)N[C@@H](CCCCN)C(=O)O)C(C)C [LGVVGSLASKVVPAVISKVK]
12 | – | > 120 | – | ≥ 120 | CSCC[C@H](N)C(=O)N[C@H](C(=O)N[C@H](C(=O)N[C@@H](Cc1ccccc1)C(=O)N[C@@H](CO)C(=O)N[C@H](C(=O)N1CCC[C@H]1C(=O)N[C@@H](CCCCN)C(=O)N[C@@H](Cc1ccccc1)C(=O)N[C@@H](CCCCN)C(=O)N[C@@H](CO)C(=O)N[C@H](C(=O)N[C@H](C(=O)N[C@@H](C)C(=O)N[C@@H](CCCCN)C(=O)N[C@@H](CC(C)C)C(=O)N[C@@H](CC(C)C)C(=O)N[C@@H](CO)C(=O)N[C@@H](CO)C(=O)N[C@@H](C)C(=O)O)C(C)C)[C@@H](C)O)C(C)C)C(C)C)C(C)C [MVVFSVPKFKSTVAKLLSSA]
13 | – | > 130 | – | ≥ 130 | CC[C@H](C)[C@H](NC(=O)[C@@H](NC(=O)[C@H](C)NC(=O)[C@@H]1CCCN1C(=O)[C@@H](NC(=O)[C@@H](NC(=O)[C@H](CCCCN)NC(=O)[C@H](CO)NC(=O)[C@H](C)NC(=O)[C@H](CC(C)C)NC(=O)[C@H](CCCN=C(N)N)NC(=O)CNC(=O)[C@H](CC(C)C)NC(=O)[C@H](C)NC(=O)[C@@H](N)CO)C(C)C)C(C)C)C(C)C)C(=O)NCC(=O)N[C@@H](CCCCN)C(=O)N[C@H](C(=O)N[C@H](C(=O)N[C@H](C(=O)O)[C@@H](C)O)[C@@H](C)O)C(C)C [SALGRLASKVVPAVIGKVTT]
14 | 100 (≈ 264 µg/mL) | 10 (≈ 26.4 µg/mL) | 100 (≈ 264 µg/mL) | – | CC[C@H](C)[C@H](NC(=O)[C@H](CCCCN)NC(=O)[C@H](CS)NC(=O)[C@H](C)NC(=O)[C@@H](NC(=O)[C@H](Cc1ccccc1)NC(=O)CNC(=O)[C@H](CC(C)C)NC(=O)CNC(=O)[C@@H](NC(=O)[C@H](CCCCN)NC(=O)CNC(=O)[C@H](CC(C)C)NC(=O)[C@H](CC(N)=O)NC(=O)[C@H](CCCCN)NC(=O)[C@H](CC(C)C)NC(=O)[C@@H](NC(=O)[C@H](C)NC(=O)[C@H](CC(C)C)NC(=O)[C@H](CCSC)NC(=O)[C@@H](N)CO)C(C)C)C(C)C)C(C)C)C(=O)N[C@@H](CC(N)=O)C(=O)N[C@@H](CCCCN)C(=O)N[C@@H](CCC(N)=O)C(=O)N[C@@H](CS)C(=O)O [SMLAVLKNLGKVGLGFVACKINKQC]
15 | – | > 128 | – | ≥ 128 | CC(C)C[C@H](NC(=O)[C@H](C)NC(=O)[C@@H](NC(=O)CNC(=O)[C@H](CCCCN)NC(=O)[C@@H](NC(=O)[C@@H](NC(=O)[C@H](CO)NC(=O)[C@H](CO)NC(=O)CNC(=O)[C@@H](NC(=O)[C@@H]1CCCN1C(=O)[C@H](CCCCN)NC(=O)[C@@H](NC(=O)[C@@H](N)CO)C(C)C)C(C)C)C(C)C)C(C)C)[C@@H](C)O)C(=O)N[C@H](C(=O)N[C@@H](CCCCN)C(=O)N[C@@H](Cc1ccccc1)C(=O)N[C@@H](Cc1ccccc1)C(=O)NCC(=O)O)C(C)C [SVKPVGSSVVKGTALVKFFG]
16 | – | > 124 | – | ≥ 124 | CC[C@H](C)[C@H](NC(=O)[C@H](CCCCN)NC(=O)[C@H](Cc1ccccc1)NC(=O)[C@H](CC(C)C)NC(=O)[C@@H]1CCCN1C(=O)[C@H](CO)NC(=O)[C@@H]1CCCN1C(=O)[C@@H](NC(=O)[C@@H](NC(=O)[C@H](C)NC(=O)[C@@H](NC(=O)CNC(=O)[C@H](CCCCN)NC(=O)CNC(=O)[C@H](C)NC(=O)[C@H](CCCN=C(N)N)NC(=O)[C@H](CCCCN)NC(=O)[C@@H](N)C(C)C)C(C)C)C(C)C)C(C)C)C(=O)N[C@H](C(=O)N[C@H](C(=O)O)C(C)C)C(C)C [VKRAGKGVAVVPSPLFKIVV]
